Experiment: refractive index (other wavelength) (dimensionless); xn = mol fraction of the nth substance listed
Settings: 101 kPa, Liquid, Standard Abbe refractometry

CC(C)OC(C)C [diisopropyl ether] + CC(C)O
Settings	refractive index
313.15 K, Wavelength=644 nm, x1 = 0.9547	1.35601
313.15 K, Wavelength=644 nm, x1 = 0.973	1.3557
313.15 K, Wavelength=644 nm, x1 = 0.9771	1.35587
313.15 K, Wavelength=644 nm, x1 = 1	1.35543
313.15 K, Wavelength=706.5 nm, x1 = 0.0277	1.36533
313.15 K, Wavelength=706.5 nm, x1 = 0.0507	1.36524
313.15 K, Wavelength=706.5 nm, x1 = 0.051	1.3652
313.15 K, Wavelength=706.5 nm, x1 = 0.0717	1.36485
313.15 K, Wavelength=706.5 nm, x1 = 0.1528	1.36418
313.15 K, Wavelength=706.5 nm, x1 = 0.1553	1.36418
313.15 K, Wavelength=706.5 nm, x1 = 0.1938	1.36394
313.15 K, Wavelength=706.5 nm, x1 = 0.2029	1.36337
313.15 K, Wavelength=706.5 nm, x1 = 0.245	1.36294
313.15 K, Wavelength=706.5 nm, x1 = 0.297	1.36209
313.15 K, Wavelength=706.5 nm, x1 = 0.2973	1.3623
313.15 K, Wavelength=706.5 nm, x1 = 0.3068	1.36204
313.15 K, Wavelength=706.5 nm, x1 = 0.398	1.36071
313.15 K, Wavelength=706.5 nm, x1 = 0.4609	1.35999
313.15 K, Wavelength=706.5 nm, x1 = 0.5434	1.35908
313.15 K, Wavelength=706.5 nm, x1 = 0.6032	1.35834
313.15 K, Wavelength=706.5 nm, x1 = 0.6371	1.358
313.15 K, Wavelength=706.5 nm, x1 = 0.701	1.35723
313.15 K, Wavelength=706.5 nm, x1 = 0.754	1.35681
313.15 K, Wavelength=706.5 nm, x1 = 0.791	1.35641
313.15 K, Wavelength=706.5 nm, x1 = 0.8296	1.35602
313.15 K, Wavelength=706.5 nm, x1 = 0.8864	1.35589
313.15 K, Wavelength=706.5 nm, x1 = 0.8903	1.35534
313.15 K, Wavelength=706.5 nm, x1 = 0.9113	1.3551
313.15 K, Wavelength=706.5 nm, x1 = 0.9547	1.3546
313.15 K, Wavelength=706.5 nm, x1 = 0.973	1.35426
313.15 K, Wavelength=706.5 nm, x1 = 0.9771	1.35416
313.15 K, Wavelength=706.5 nm, x1 = 1	1.35401
318.15 K, Wavelength=404.7 nm, x1 = 0.0277	1.37668
318.15 K, Wavelength=404.7 nm, x1 = 0.0507	1.37662
318.15 K, Wavelength=404.7 nm, x1 = 0.051	1.37654
318.15 K, Wavelength=404.7 nm, x1 = 0.0717	1.37616
318.15 K, Wavelength=404.7 nm, x1 = 0.1528	1.3755
318.15 K, Wavelength=404.7 nm, x1 = 0.1553	1.3755
318.15 K, Wavelength=404.7 nm, x1 = 0.1938	1.37525
318.15 K, Wavelength=404.7 nm, x1 = 0.2029	1.37457
318.15 K, Wavelength=404.7 nm, x1 = 0.245	1.374
318.15 K, Wavelength=404.7 nm, x1 = 0.297	1.37308
318.15 K, Wavelength=404.7 nm, x1 = 0.2973	1.37334
318.15 K, Wavelength=404.7 nm, x1 = 0.3068	1.37306
318.15 K, Wavelength=404.7 nm, x1 = 0.398	1.37184
318.15 K, Wavelength=404.7 nm, x1 = 0.4609	1.37087
318.15 K, Wavelength=404.7 nm, x1 = 0.5434	1.36988
318.15 K, Wavelength=404.7 nm, x1 = 0.6032	1.36911
318.15 K, Wavelength=404.7 nm, x1 = 0.6371	1.36872
318.15 K, Wavelength=404.7 nm, x1 = 0.701	1.36791
318.15 K, Wavelength=404.7 nm, x1 = 0.754	1.36743
318.15 K, Wavelength=404.7 nm, x1 = 0.791	1.36699
318.15 K, Wavelength=404.7 nm, x1 = 0.8296	1.36655
318.15 K, Wavelength=404.7 nm, x1 = 0.8864	1.36644
318.15 K, Wavelength=404.7 nm, x1 = 0.8903	1.36584
318.15 K, Wavelength=404.7 nm, x1 = 0.9113	1.36554
318.15 K, Wavelength=404.7 nm, x1 = 0.9547	1.3651
318.15 K, Wavelength=404.7 nm, x1 = 0.973	1.3647
318.15 K, Wavelength=404.7 nm, x1 = 0.9771	1.36468
318.15 K, Wavelength=404.7 nm, x1 = 1	1.36447
318.15 K, Wavelength=435.8 nm, x1 = 0.0277	1.37373
318.15 K, Wavelength=435.8 nm, x1 = 0.0507	1.37367
318.15 K, Wavelength=435.8 nm, x1 = 0.051	1.3736
318.15 K, Wavelength=435.8 nm, x1 = 0.0717	1.37322
318.15 K, Wavelength=435.8 nm, x1 = 0.1528	1.37255
318.15 K, Wavelength=435.8 nm, x1 = 0.1553	1.37255
318.15 K, Wavelength=435.8 nm, x1 = 0.1938	1.37231
318.15 K, Wavelength=435.8 nm, x1 = 0.2029	1.37164
318.15 K, Wavelength=435.8 nm, x1 = 0.245	1.37107
318.15 K, Wavelength=435.8 nm, x1 = 0.297	1.37014
318.15 K, Wavelength=435.8 nm, x1 = 0.2973	1.3704
318.15 K, Wavelength=435.8 nm, x1 = 0.3068	1.37013
318.15 K, Wavelength=435.8 nm, x1 = 0.398	1.36891
318.15 K, Wavelength=435.8 nm, x1 = 0.4609	1.36796
318.15 K, Wavelength=435.8 nm, x1 = 0.5434	1.36693
318.15 K, Wavelength=435.8 nm, x1 = 0.6032	1.36618
318.15 K, Wavelength=435.8 nm, x1 = 0.6371	1.36578
318.15 K, Wavelength=435.8 nm, x1 = 0.701	1.36501
318.15 K, Wavelength=435.8 nm, x1 = 0.754	1.36453
318.15 K, Wavelength=435.8 nm, x1 = 0.791	1.36408
318.15 K, Wavelength=435.8 nm, x1 = 0.8296	1.36364
318.15 K, Wavelength=435.8 nm, x1 = 0.8864	1.36355
318.15 K, Wavelength=435.8 nm, x1 = 0.8903	1.36294
318.15 K, Wavelength=435.8 nm, x1 = 0.9113	1.36264
318.15 K, Wavelength=435.8 nm, x1 = 0.9547	1.36222
318.15 K, Wavelength=435.8 nm, x1 = 0.973	1.36182
318.15 K, Wavelength=435.8 nm, x1 = 0.9771	1.36178
318.15 K, Wavelength=435.8 nm, x1 = 1	1.36157
318.15 K, Wavelength=486.1 nm, x1 = 0.0277	1.37036
318.15 K, Wavelength=486.1 nm, x1 = 0.0507	1.3703
318.15 K, Wavelength=486.1 nm, x1 = 0.051	1.37024
318.15 K, Wavelength=486.1 nm, x1 = 0.0717	1.36986
318.15 K, Wavelength=486.1 nm, x1 = 0.1528	1.36919
318.15 K, Wavelength=486.1 nm, x1 = 0.1553	1.36919
318.15 K, Wavelength=486.1 nm, x1 = 0.1938	1.36894

Reference: the NIST ThermoML archive (doi:10.1016/j.fluid.2014.09.014)
